Assay results from patent publication US20210267996A1, “Compounds for inhibition of inflammation” (Children`s Medical Center Corporation, priority 2018, published 2021).
Entries after “also recorded” stand apart in the source; their conditions may differ.

Experiments:
[1] = target: T1, mouse GSDMA3-3C (Mus musculus, UniProt Q5Y4Y6); assay: Liposome leakage assay, GSDMA3-3C plus 3C protease; format: biochemical; conditions: read-out: IC50 of liposome leakage; 3C-cleaved GSDMA3-3C
T1 construct: other: 3C-cleaved GSDMA3-3C; Human GSDMD-3C and mouse GSDMA3-3C mutants were constructed by QuikChange Mutagenesis (Agilent Technologies); fused on or other part: His6-MBP tag, removed by TEV before use; The engineered 3C site is cut by 3C protease, so the N-terminal pore-forming fragment is set free in the well
T1 sequence (Q5Y4Y6 with tags, fused parts or gaps INS262LEVLFQGP, form open): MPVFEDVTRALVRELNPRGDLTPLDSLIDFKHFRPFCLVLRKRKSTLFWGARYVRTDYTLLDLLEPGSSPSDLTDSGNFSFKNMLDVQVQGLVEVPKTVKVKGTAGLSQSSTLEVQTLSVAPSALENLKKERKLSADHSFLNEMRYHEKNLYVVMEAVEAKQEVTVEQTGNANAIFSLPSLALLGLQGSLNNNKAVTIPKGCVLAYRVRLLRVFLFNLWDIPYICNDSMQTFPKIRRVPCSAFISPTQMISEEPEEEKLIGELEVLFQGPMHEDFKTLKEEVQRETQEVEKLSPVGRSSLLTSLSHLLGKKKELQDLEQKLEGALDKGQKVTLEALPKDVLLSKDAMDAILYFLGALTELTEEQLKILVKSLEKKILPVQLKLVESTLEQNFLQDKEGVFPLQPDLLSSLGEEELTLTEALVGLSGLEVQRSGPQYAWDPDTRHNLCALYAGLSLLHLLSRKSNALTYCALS

[2] = test system: NLRP3, GSDMD and HMGB1; assay: Peritoneal macrophages of LPS-challenged mice (immunoblot); format: in vivo, mouse; conditions: 6 hrs after LPS
Experimental: (§1) Drug administration and LPS-induced sepsis in mice. […] In the indicated group of mice in FIG. 5h, copper gluconate (0.15 mg/kg) was administered intraperitoneally 6 hr prior to the first injection of DSF. Sepsis was induced in C57BL/6 mice (8-10 weeks old) by intraperitoneal injection of LPS (E. coli O111:B4) at indicated concentrations. In some experiments, mice were treated with copper gluconate (0.15 mg/kg) or vehicle by intraperitoneal injection 5 hr before LPS challenge and then given DSF (50 mg/kg) intraperitoneally dissolved in sesame oil or vehicle 4 hr before and just before LPS challenge (15 mg/kg intraperitoneally). Peritoneal cells were collected by rinsing the peritoneal cavity with ice cold PBS containing 3% FBS 6 hr after LPS challenge. To measure cytokines, blood samples were collected by tail vein bleed 12 hr post LPS challenge and allowed to clot at room temperature. Sera obtained after centrifugation at 2,000×g for 10 min were analysed for inflammatory cytokines by ELISA.
Peritoneal macrophages were harvested 6 hrs later and analysed for NLRP3, GSDMD and HMGB1 by immunoblot.

[3] = test system: caspase-1, GSDMD, and pro-IL-1β; assay: Caspase-1, GSDMD, pro-IL-1β cleavage and IL-1β secretion by immunoblot, THP-1; format: cell-based, human
[4] = test system: HT-29 cells; assay: Necroptosis induced by TNFα, SMAC mimetic and z-VAD-fmk; format: cell-based; conditions: SMAC mimetic
Text: Inhibition was shown by cell survival, assessed by CellTiter-Glo ATP luminescence, and membrane permeabilization, assessed by uptake of the membrane-impermeable dye SYTOX Green.

[5] = test system: LPS-induced sepsis in C57BL/6 mice; assay: LPS-induced sepsis in mice, survival; format: in vivo, mouse
Experimental: Mice. 8-week-old female C57BL/6 wild-type mice were purchased from The Jackson Laboratory and maintained at the SPF facility at Harvard Medical School. All mouse experiments were conducted using protocols approved by the Animal Care and Use Committees of Boston Children's Hospital and Harvard Medical School.
as §1
Cell death was determined by CytoTox96 assay. […] Statistical analysis was performed using the log-rank test (In FIGS. 14, 16, 17, mice/group). […] Serum was obtained 12 hrs post LPS challenge. Shown are mean±s.d. […] Statistical analysis was performed using the log-rank test (8 mice/group).

[6] = test system: mouse iBMDMs; assay: Non-canonical inflammasome pyroptosis, iBMDMs with LPS electroporation; format: cell-based
Experimental: Cell lines and treatments: THP-1 cells and HEK293T cells (obtained from ATCC) were grown in RPMI with 10% heat-inactivated fetal bovine serum, supplemented with 100 U/ml penicillin G, 100 μg/ml streptomycin sulfate, 6 mM HEPES, 1.6 mM L-glutamine, and 50 μM 2ME. C57BL/6 mouse iBMDM cells were kindly provided by J. Kagan (Boston Children's Hospital) and cultured in DMEM with the same supplements. Cells were verified to be free of mycoplasma contamination. Transient transfection of HEK293T cells was performed using Lipofectamine 2000 (Invitrogen) according to the manufacturer's instructions. iBMDM cells were transfected by nucleofection using the Amaxa Nucleofector kit (VPA-1009). […] To examine IκBα. phosphorylation and degradation as well as IL-1β induction, PMA-differentiated THP-1 cells were stimulated with LPS (1 μg/ml) for 0.5, 1 and 4 hrs, respectively. For noncanoical inflammasome activation, 1 million iBMDM cells were electroporated with 1 μg ultra LPS.
Cytotoxicity and cell viability assays: cell death and cell viability were determined by the lactate dehydrogenase release assay using the CytoTox 96 Non-Radioactive Cytotoxicity Assay kit (Promega) and by measuring ATP levels using the CellTiter-Glo Luminescent Cell Viability Assay (Promega), respectively, according to the manufacturer's instructions. Luminescence and absorbance were measured on a BioTek Synergy 2 plate reader.
In FIGS. 4, 6, and 8, PMA-differentiated LPS-primed human THP-1 were pre-treated with indicated concentrations of each compound for 1 h before adding nigericin or medium. The number of surviving cells was determined by CellTiter-Glo assay (FIGS. 4 and 6) and IL-1β in culture supernatants was assessed by ELISA (FIG. 8) 2 hrs later. In FIGS. 5, 7, and 9, mouse iBMDMs were pre-treated with each test compound for 1 hr before electroporation with PBS or LPS. The number of surviving cells was determined by CellTiter-Glo assay (FIGS. 5 and 7) and IL-1β in culture supernatants was assessed by ELISA (FIG. 9) 2.5 hrs later. In FIGS. 8 and 9, 40 μM concentration of test compounds were added.

[7] = target: T2, Alexa 488-labeled His-MBP-GSDMD (Homo sapiens, UniProt P57764); assay: Microscale thermophoresis (MST) binding assay
T2 construct: made in house; host or cells: E. coli BL21 (DE3)
T2 sequence (P57764 whole entry): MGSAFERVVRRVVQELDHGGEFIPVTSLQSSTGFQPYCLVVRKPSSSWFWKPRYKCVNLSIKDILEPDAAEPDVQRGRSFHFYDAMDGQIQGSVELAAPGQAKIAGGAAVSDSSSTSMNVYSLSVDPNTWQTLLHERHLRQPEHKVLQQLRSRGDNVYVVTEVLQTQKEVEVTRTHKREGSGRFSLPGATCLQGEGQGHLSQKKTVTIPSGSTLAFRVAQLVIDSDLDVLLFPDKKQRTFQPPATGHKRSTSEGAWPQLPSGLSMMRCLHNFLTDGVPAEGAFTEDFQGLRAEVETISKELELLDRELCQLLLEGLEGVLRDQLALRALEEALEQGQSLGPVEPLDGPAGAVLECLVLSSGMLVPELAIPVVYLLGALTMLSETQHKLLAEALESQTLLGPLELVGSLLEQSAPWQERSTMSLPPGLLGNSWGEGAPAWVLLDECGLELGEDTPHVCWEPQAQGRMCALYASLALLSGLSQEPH
Experimental: Fluorescent protein labelling and microscale thermophoresis binding assay: His6-MBP-GSDMD was labeled with AlexaFluor-488 using the Molecular Probes protein labelling kit. Binding of inhibitors to GSDMD was evaluated using microscale thermophoresis (MST). Ligands (49 nM-150 μM) were incubated with purified AlexaFluor-488-labeled protein (80 nM) for 30 min in assay buffer (20 mM HEPES, 150 mM NaCl, 0.05% Tween 20). The sample was loaded into NanoTemper Monolith NT. 115 glass capillaries and MST carried out using 20% LED power and 40% MST power. Kd values were calculated using the mass action equation and NanoTemper software.
The test compounds were assessed for GSDMD binding by microscale thermophoresis (MST).

[8] = test system: THP-1 cells; assay: Canonical inflammasome pyroptosis, LPS-primed THP-1 cells plus nigericin; format: cell-based, human; conditions: THP-1, nigericin
Experimental: Cell viability assay. […] Primed THP-1 cells were pretreated with each test compound for 1 hr before addition of 20 μM nigericin or medium as control. The number of surviving cells was determined by CellTiter-Glo assay 1.5 hrs later. The final percent cell viability was calculated using the formula [(luminescencetest compound−luminescencencenegative control)/(luminescencencepositive control−luminescencenegative control)]×100, where wells with only LPS were used as positive controls and wells treated with LPS and nigericin were used as negative controls.
In FIGS. 4, 6, and 8, PMA-differentiated LPS-primed human THP-1 were pre-treated with indicated concentrations of each compound for 1 h before adding nigericin or medium. The number of surviving cells was determined by CellTiter-Glo assay (FIGS. 4 and 6) and IL-1β in culture supernatants was assessed by ELISA (FIG. 8) 2 hrs later. […] In FIGS. 8 and 9, 40 μM concentration of test compounds were added. […] Graphs show the mean±s.d. and data shown are representative of three independent experiments. **P<0.01.

[9] = target: C191A GSDMD (Homo sapiens, UniProt P57764, C191A)
Sequence of C191A GSDMD (P57764 whole entry C191A): as the sequence (P57764 whole entry) above, with C191A counted along it
Experimental: Liposome leakage assay: fluorogenic liposome leakage assay detects leakage of Tb^3+ from Tb^3+-loaded liposomes incubated with GSDMD and caspase-11 (See References 7 and 9). Liposome leakage was detected by an increase in fluorescence when Tb^3+ bound to dipicolinic acid (DPA) in Buffer C. […] The fluorescence intensity of the well was measured at 545 nm with an excitation of 276 nm 1 hr after addition of caspase-11 using a Perkin Elmer EnVision plate reader. The final percent inhibition was calculated as [(fluorescencetest compound−fluorescencenegative control)/(fluorescencepositive control−fluorescencenegative control)]×100, where a well with GSDMD without the test compound was used as positive control, and a well without caspase-11 was used as negative control.

Structure (SMILES)	IC50 [1] [µM]	GSDMD processing in peritoneal macrophages [2]	NLRP3 priming in mice [2]	caspase-1, GSDMD, pro-IL-1β processing and IL-1β secretion ([3]; 1 μM with copper gluconate)	caspase-1, GSDMD, pro-IL-1β processing and IL-1β secretion ([3]; 1 μM without copper)	necroptosis [4]	survival ([5]; LPS 15 mg/kg, 50 mg/kg ip 24 and 4 hrs before, 96 hrs)	survival ([5]; LPS 25 mg/kg, 50 mg/kg ip 24 and 4 hrs before)	survival ([5]; LPS 25 mg/kg, 50 mg/kg ip post LPS, with copper gluconate 0.15 mg/kg)	survival ([5]; LPS 25 mg/kg, 50 mg/kg ip post LPS, without copper)	survival ([5]; LPS 50 mg/kg, 50 mg/kg ip 24 and 4 hrs before)	survival of Casp11−/− mice ([5]; LPS challenge)	survival of Gsdmd−/− mice ([5]; LPS challenge)	survival of Casp1−/− mice ([5]; lethal LPS challenge)	inhibition of non-canonical inflammasome pyroptosis [6]	binding to GSDMD according to MST [7]	inhibition of canonical inflammasome pyroptosis [8]	fold loss of liposome leakage inhibition, C191A versus WT GSDMD [9] [fold]
CCN(CC)C(=S)SSC(=S)N(CC)CC [C-23, Tetraethylthiuram disulfide]	12.1 ± 2.1	equally processed	did not inhibit NLRP3 priming in mice	completely blocked	had no effect	had no effect on necroptosis	all the disulfiram-treated mice survived	5 of 8	2 of 8	died	1 of 8	did not significantly affect the survival	did not significantly affect the survival	protected	–	–	–	–
Cc1ccc(S(=O)(=O)/C=C/C#N)cc1 [Bay 11-7082]	–	–	–	–	–	–	–	–	–	–	–	–	–	–	less active than disulfiram	bound to GSDMD; also recorded: lower affinity	also inhibits the canonical inflammasome pathway; also recorded: more effective at inhibiting canonical inflammasome-dependent pyroptosis than disulfiram in the absence of copper	2
